What is called inhibition is how much of the control response was suppressed. Low readings indicate a response near the control, high ones a response far below the control.

For one test, the target named is T1, hDGAT1 (Homo sapiens, UniProt O75907).
T1 construct: host or cells: Sf9 insect cells (baculovirus); microsomal preparation
T1 sequence (O75907 1-488): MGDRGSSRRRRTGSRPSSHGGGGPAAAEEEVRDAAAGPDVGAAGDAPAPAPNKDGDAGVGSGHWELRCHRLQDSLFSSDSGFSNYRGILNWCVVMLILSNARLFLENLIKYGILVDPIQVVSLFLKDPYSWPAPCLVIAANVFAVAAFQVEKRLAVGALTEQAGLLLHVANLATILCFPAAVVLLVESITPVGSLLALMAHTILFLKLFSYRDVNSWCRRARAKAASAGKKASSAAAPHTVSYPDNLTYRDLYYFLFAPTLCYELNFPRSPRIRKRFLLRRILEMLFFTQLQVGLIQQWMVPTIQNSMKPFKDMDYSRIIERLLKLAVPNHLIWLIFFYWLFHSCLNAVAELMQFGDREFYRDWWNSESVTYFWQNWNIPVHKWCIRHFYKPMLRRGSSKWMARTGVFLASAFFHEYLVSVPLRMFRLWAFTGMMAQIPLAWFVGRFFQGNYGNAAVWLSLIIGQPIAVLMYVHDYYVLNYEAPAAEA
The test is described as follows: In-vitro DGAT1 assay (hDGAT1 microsomes from Sf9 cells, 14C oleoyl CoA, triglyceride formation). As to conditions: At 1 μM. In kind it is biochemical. In outline:
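Human DGAT1 in baculovirus-infected Sf9 microsomes (2.5–10 μg), [14C]oleoyl-CoA with 409.5, 1228.5 or 1638 μM 1,2-dioleoyl-sn-glycerol, Tris-HCl pH 7.4 buffer with BSA. Compounds screened at 10, 5 and 1 μM in duplicate. Reaction 10 min at 37 °C; heptane-extracted [14C]triglyceride counted by scintillation.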
On to `CC(C)C(NC(=O)c1cc(-c2ccc(OCc3ccccc3C(F)(F)F)cc2)no1)C(=O)O` (stereo not shown) [Example 330, 3-Methyl-2-(3-(4-(2-(trifluoromethyl)benzyloxy)phenyl)isoxazole-5-carboxamido)butanoic acid], for which the inhibition at 1 µM is 0 to 50%. Take `CC(C)[C@H](NC(=O)c1cc(-c2ccc(NC(=O)Nc3cc(F)cc(F)c3)cc2)no1)C(=O)O` [Example 167, (S)-2-(3-(4-(3-(3,5-difluorophenyl)ureido)phenyl)isoxazole-5-carboxamido)-3-methylbutanoic acid]: the inhibition at 1 µM fell in the range of 75 to 100%. `Cc1ccc(NC(=O)Nc2ccc(-c3cc(C(=O)N[C@H](C(=O)O)C(C)C)on3)cc2)c(C)c1` [Example 171, (S)-2-(3-(4-(3-(2,4-dimethylphenyl)ureido)phenyl)isoxazole-5-carboxamido)-3-methylbutanoic acid] had an inhibition at 1 µM of 75 to 100%.

Still in this test, the particulars now being: At 5 μM.
The molecule `CC(C)[C@H](NC(=O)c1cc(-c2ccc(NC(=O)Nc3ccccc3F)cc2F)no1)C(=O)O` [Example 144, (S)-2-(3-(2-Fluoro-4-(3-(2-fluorophenyl)ureido)phenyl)isoxazole-5-carboxamido)-3-methylbutanoic acid] returned an inhibition at 5 µM of 75 to 100%.

Staying with this test, now noted: At 10 μM.
`COC(=O)C(NC(=O)c1cc(-c2ccc(NC(=O)Nc3ccccc3F)cc2)no1)C(C)C` (stereo not shown) [Example 105, 2-[(3-{4-[3-(2-Fluoro-phenyl)ureido]-phenyl}-isoxazole-5-carbonyl)-amino]-3-methyl-butyric acid methyl ester]: the inhibition at 10 µM is 50 to 75%. Molecule `COC(=O)C(C)(C)NC(=O)c1cc(-c2ccc(NC(=O)Nc3ccc(F)cc3)cc2)no1` [Example 117, Methyl 2-(3-(4-(3-(4-fluorophenyl)ureido)phenyl)isoxazole-5-carboxamido)-2-methylpropanoate] showed an inhibition at 10 µM of 50 to 75%. `CC(C)[C@H](NC(=O)c1cc(-c2ccc(Nc3nc4ccc(F)cc4s3)cc2)no1)C(=O)O` [Example 44, (S)-2-({3-[4-(6-Fluoro-benzothiazol-2-ylamino)-phenyl]-isoxazole-5-carbonyl}-amino)-3-methyl-butyric acid] came in with an inhibition at 10 µM of 75 to 100%.

For the molecule `CC(C)[C@H](NC(=O)c1onc(-c2ccc(NC(=O)Nc3ccccc3)cc2)c1-c1ccccc1)C(=O)O` [Example 89, (S)-3-Methyl-2-({4-phenyl-3-[4-(3-phenyl-ureido)-phenyl]-isoxazole-5-carbonyl}-amino)-butyric acid], the inhibition at 10 µM fell in the range of 0 to 50%. On the same count and under the same terms, with `CC(C)[C@H](NC(=O)c1cc(-c2ccc(NC(=O)Nc3ccc(F)cc3)cc2)no1)C(=O)O` [Example 85, (S)-2-[(3-{4-[3-(4-Fluoro-phenyl)-ureido]-phenyl}-isoxazole-5-carbonyl)-amino]-3-methyl-butyric acid] the figure was 75 to 100%; with `CC(C)C[C@H](NC(=S)c1cc(-c2ccc(Nc3nc4ccc(F)cc4s3)cc2)no1)C(=O)O` [Example 49, (S)-2-({3-[4-(6-Fluoro-benzothiazol-2-ylamino)-phenyl]-isoxazole-5-carbothioyl}-amino)-4-methyl-pentanoic acid], 50 to 75%. Molecule `CC(C)C(NC(=O)c1cc(-c2ccc(NC(=O)Nc3ccc(F)cc3F)c(F)c2)no1)C(=O)O` (stereo not shown) [Example 150, 2-(3-(4-(3-(2,4-Difluorophenyl)ureido)-3-fluorophenyl)isoxazole-5-carboxamido)-3-methylbutanoic acid] displayed an inhibition at 10 µM of 75 to 100%. Regarding `COC[C@H](NC(=NO)c1cc(-c2ccc(Nc3nc4ccc(F)cc4s3)cc2)no1)C(=O)O` [Example 17, (S)-2-({3-[4-(6-Fluoro-benzothiazol-2-ylamino)-phenyl]-N-hydroxy-isoxazole-5-carboximidoyl}-amino)-3-methoxy-propionic acid], the inhibition at 10 µM was 0 to 50%. Same read-out and setting: the value for `COC(=O)C1(NC(=O)c2cc(-c3ccc(Nc4nc5ccc(F)cc5s4)cc3)no2)CCCC1` [Example 62, 1-({3-[4-(6-fluoro-benzothiazol-2-ylamino)-phenyl]-isoxazole-5-carbonyl}-amino)-cyclopentanecarboxylic acid methyl ester] was 0 to 50%.

The values are drawn from patent publication US8835428B2, “Diacylglycerol acyltransferase inhibitors” (Piramal Enterprises Limited, priority 2008, dated 2014).
